Measurements taken from patent US5561234A, “1-(7-chloroquinolin-4-yl)pyrazole-3-carboxamide N-oxide derivatives, method of preparing them, and their pharmaceutical compositions” (Sanofi, priority 1994, dated 1996).
Values after ≈ are worked out from the molar mass of the structure shown. Read-outs that look alike come from different tables or passages of the source.

Assay: comparative solubility study, saturated solutions at 25° C., assayed by liquid chromatography
Format: physicochemical
Experimental: The media studied are water, ethanol and a water/polyethylene glycol 400 mixture (70/30 v/v).
The solubility measurements were made at 25° C. after stirring of the saturated solutions for 3 or 5 hours.
After achieving conditions under which the products solubilized in water are not adsorbed on certain filters, the solutions are filtered and then assayed by liquid chromatography (column μmBondapak C18, eluent acetonitrile/trifluoroacetic acid, detection at 254 nm, flow rate 1 ml/minute).

[1] = organic solvent or mixture, ethanol, stirring of saturated solution for 3 or 5 hours, read-out: solubility in ethanol
[2] = water, stirring of saturated solution for 3 or 5 hours, read-out: solubility in water
[3] = water/peg 400 70/30, organic solvent or mixture, water/polyethylene glycol 400 mixture (70/30 v/v), stirring for 3 or 5 hours, read-out: solubility in water/PEG

Row | solubility [1] [µg/mL] | solubility [2] [µg/mL] | solubility [3] [µg/mL] | Compound
1 | 1300 (≈ 2210 µM) | 0.4 (≈ 0.681 µM) | < 1 | COc1cccc(OC)c1-c1cc(C(=O)NC2(C(=O)O)C3CC4CC(C3)CC2C4)nn1-c1ccnc2cc(Cl)ccc12 (stereo not drawn) [SR48692, 2-{[1-(7-Chloroquinolin-4-yl)-5-(2,6-dimethoxyphenyl)pyrazol-3-yl]carbonylamino}adamantane-2-carboxylic acid]
2 | 10300 (≈ 17100 µM) | 1.7 (≈ 2.82 µM) | 30 (≈ 49.7 µM) | COc1cccc(OC)c1-c1cc(C(=O)NC2(C(=O)O)C3CC4CC(C3)CC2C4)nn1-c1cc[n+]([O-])c2cc(Cl)ccc12 (stereo not drawn) [EXAMPLE 2, 2-{[1-(1-oxido-7-chloroquinolin-4-yl)-5-(2,6-dimethoxyphenyl)-pyrazol-3-yl]carbonylamino}adamantane-2-carboxylic acid]
